In US20240139139A1, “COMPOSITION FOR PREVENTING OR TREATING CEREBROVASCULAR DISEASE” (TOKYO METROPOLITAN INSTITUTE OF MEDICAL SCIENCE, priority 2021, published 2024):

What was measured:
[1] = test system: cerebral infarction models of wild-type mice; experiment: Long-term neurological symptoms by corner test and cylinder test, 15-HETrE intravenous; type: in vivo, mouse; conditions: 600 ng intravenously 24, 48, 72 hours, up to 28 days, FIG. 16, 17
Description: (§1) To identify lipids associated with pathological conditions of cerebral infarction, a comprehensive analysis was performed on lipids extracted from the cerebral tissue of a mouse model of cerebral infarction. The mouse model of cerebral infarction was prepared according to the following procedure. An embolization suture with a silicone-coated tip (Ethilon (suture gauge number 7-0), Johnson & Johnson) was inserted through the common carotid artery of 8 to 24-week-old C57BL/6N mice. Cerebral temperature was maintained at 36° C., cerebral blood flow was monitored by Doppler blood flowmeter ALF21 (ADVANCE CO., LTD.), and the embolization suture was placed at the origin of the middle cerebral artery so that the cerebral blood flow in the perfused area of the middle cerebral artery was maintained at 20 to 40% of the steady state. By removing the embolization suture after 60 minutes of ischemia, the cerebral tissue was reperfused. As a control, sham-operated mice were prepared.
(§2) Cerebral infarction models of wild-type mice were prepared (n=10) by the same procedure as in 1 above. […] The cerebral infarct volume 28 days after ischemia-reperfusion was calculated by the procedure in 6 above.
In addition, long-term neurological symptoms were evaluated over time up to 28 days after ischemia-reperfusion by a corner test and a cylinder test (Nat. Med., 2017 June; 23(6):723-732). […]

[2] = test system: cerebral infarction models of wild-type mice; experiment: Neurological symptoms (Bederson score) in wild-type mouse cerebral infarction model, 15-HETrE intraperitoneal; type: in vivo; conditions: 600 μg per mouse intraperitoneally 24 hours after ischemia-reperfusion, vs vehicle, FIG. 8
Description: as §1
(§3) Then, cerebral infarction models of PLA2g2e knockout mice (Sato H., et al., 2014, Cell Metab, 20: 119-132) and wild-type mice were prepared by the same procedure as in 1 above (n=12, respectively), and neurological symptoms after ischemia-reperfusion were assessed over time in accordance with the neurological symptoms assessment score reported by Bederson, et al. (Bederson J B, et al., 1986, Stroke, 17: 472-476). […]

[3] = test system: neurons around the infarct area; experiment: RNA-seq and GO analysis of neurons around the infarct area, 15-HETrE intravenous; type: in vivo, mouse; conditions: wild-type mice; 600 ng intravenously 24, 48, 72 hours; day 4; RNA-seq vs vehicle; FIG. 18
Description: Cerebral infarction models of neuron-specific Padi4cKO mice and wild-type mice were prepared by the same procedure as in 1 above. At 4 days after ischemia-reperfusion, the brain was isolated after transcardial perfusion with artificial cerebrospinal fluid. The brain was sliced into 300 lam thick sections and homogenized after treated with pronase. Neurons around the infarct area were isolated using anti-Thy1.2 Antibody (BioLegend) by a cell sorter (BD FACSAria III). Single-cell RNA-seq analysis was performed using Chromium Next GEM Single Cell 3′ Kit (10× Genomics) and DNB-seq (MGI Tech), and the results of cell population clustering were visualized as a UMAP plot using Loupe Browser (10× Genomics). A gene ontology (GO) analysis was also performed for each cluster using g:profiler (https:/biit.cs.ut.ee/gprofiler/gost).
Cerebral infarction models of wild-type mice was prepared by the same procedure as in 1 above. At 24, 48, and 72 hours after ischemia-reperfusion, 15-HETrE (600 ng)/phosphate buffer was administered intravenously through the orbital venous plexus. Neurons around the infarct area were isolated from mice on day 4 after ischemia-reperfusion by the procedure in 7 above, and RNA-seq analysis was performed. The analysis results were visualized as a volcano plot using Loupe Browser, and GO analysis was performed using g:profiler. […]

[4] = test system: cerebral infarction models of wild-type mice; experiment: Cerebral infarct volume 28 days after ischemia-reperfusion in wild-type mouse model, 15-HETrE intravenous; type: in vivo; conditions: 600 ng intravenously 24, 48, 72 hours, p<0.05 vs vehicle, FIG. 15
Description: as §1, with “By removing the embolization suture after 60 minutes of ischemia, the cerebral tissue was reperfused. As a control, sham-operated mice were prepared.” left out
(§4) Sections were prepared from the cerebral tissue 4 days after ischemia-reperfusion and immunohistochemistry was performed using anti-MAP2 antibody by the same procedure as in 2 above. The cerebral infarct volume was calculated based on the region that was not stained by the anti-MAP2 antibody, which is regarded as the cerebral infarct area.
as §2

[5] = test system: promoter region of the mouse Padi4 gene; experiment: Padi4 promoter luciferase reporter assay in Neuro2A cells; type: cell-based; conditions: lipids 10 μM, 24 hours, relative to untreated cells = 1, FIG. 9
Description: To identify the lipids inducing PADI4 expression, a luciferase reporter vector was prepared by incorporating the promoter region (SEQ ID NO: 5) of the mouse Padi4 gene (NCBI database accession number: NM_011061) into pGL3-Basic (Promega). The reporter vector was transfected into Neuro2A cells using PEI Max (Polysciences), and reporter cells were obtained. After reporter cells were cultured in media supplemented with lipids (10 μM final concentration) for 24 hours, the luciferase activity was measured with Luciferase Assay System (Promega). […]

PADI4-positive neurons = experiment: Number of PADI4-positive neurons in the peri-infarct area (immunohistochemistry); type: in vivo, mouse; conditions: PLA2g2e knockout mice; 1 mg orally 24, 48, 72 hours; 4 days after ischemia-reperfusion; cells per visual field; FIG. 12
Description: Then, mice were perfused and fixed transcardially using a 4% paraformaldehyde solution 7 days after ischemia-reperfusion, and the brains were isolated. From the isolated cerebral tissue, sections of 1 mm thickness were prepared, embedded in paraffin, thinly sliced to 5 μm, and immunohistochemistry was performed according to an ordinary method. Anti-MAP2 antibody (Sigma-Aldrich, Cat. #M4403) (1:1000 dilution) was used as a primary antibody, and anti-mouse IgG antibody derived from goat (Jackson Immuno Research Laboratories, Inc., Cat. #115-005-003) (1:300 dilution) was used as a secondary antibody. In the figure, the scale bar indicates 1 mm, and the round linear object is an air bubble that was mixed in during the preparation of the specimen. The ischemic necrotic region (unstained region) in the cerebral infarction model of PLA2g2e knockout mice has expanded compared to the cerebral infarction model of wild-type mice. […]
Also, sections were prepared from the cerebral tissue 4 days after ischemia-reperfusion and PADI4-positive neurons were detected by immunohistochemistry by the same procedure as in 2 above, and the number of cells per visual field (approximately 0.1 square millimeter) in the pen-infarct area was counted. […]

[6] = test system: cerebral infarction model of PLA2g2e knockout mice; experiment: Cerebral infarct volume (anti-MAP2 staining) in PLA2g2e knockout mouse cerebral infarction model, oral lipid; type: in vivo; conditions: 1 mg orally 24, 48 and 72 hours after ischemia-reperfusion, 4 days after ischemia-reperfusion, FIG. 10
Description: as §1, with “prepared. […]” for “prepared.”
as §4

[7] = in vivo, po; cited from earlier work
[8] = test system: cerebral infarction model of PLA2g2e knockout mice; experiment: Neurological symptoms over time in PLA2g2e knockout mouse cerebral infarction model, oral lipid; type: in vivo; conditions: 1 mg orally 24, 48, 72 hours, vs vehicle or stearic acid, p<0.001, FIG. 11
Description: as §1, with “By removing the embolization suture after 60 minutes of ischemia, the cerebral tissue was reperfused. As a control, sham-operated mice were prepared.” left out
as §3
In addition, neurological symptoms after ischemia-reperfusion were evaluated over time according to the same procedure as in 2 above.

SMILES | long-term neurological symptoms (corner test and cylinder test) [1] | neurological symptoms (Bederson neurological symptoms assessment score) [2] | expression of genes associated with neural tissue formation, neurite formation and synapse formation [3] | cerebral infarct volume [4] | Padi4 promoter inducing activity (luciferase activity) [5] | number of PADI4-positive neurons around the cerebral infarct area (PADI4-positive neurons) | cerebral infarct volume [6] | migration into and accumulation in cerebral tissue [7] | neurological symptoms after ischemia-reperfusion [8]
CCCCC[C@H](O)/C=C/C=C\C/C=C\CCCCCCC(=O)O [15-HETrE, 15-hydroxyeicosatrienoic acid] | improved neurological symptoms up to 28 days | improved | highly expressed | decreased the cerebral infarct volume | – | – | – | – | –
CCCCC/C=C\C/C=C\C/C=C\CCCCCCC(=O)O [DGLA, dihomo-γ-linolenic acid] | – | – | – | – | induce Padi4 promoter activity | increased | decreased the cerebral infarct volume | migrate well into the cerebral tissue and are accumulated in the cerebral tissue even by oral intake | improvement in neurological symptoms
CCCCCCCCCCCCCCCCCC(=O)O [stearic acid, reference compound] | – | – | – | – | – | – | did not change the cerebral infarct volume | – | –
